One data set concerns the target VEGF-R2 (KDR) (Homo sapiens, UniProt P35968). Put plainly: Inhibition of the tyrosine kinase activity of VEGF-R2 (KDR). In kind it is biochemical. How it is done:
Inhibition of the Tyrosine Kinase Activity of VEGF-R2 (KDR)
The inhibition test is carried out as described above.

Data set [1] in a line: Percutaneous penetration/permeation in static Franz-type diffusion cells with split-thickness human cadaver skin. The following applies: solution a (propylene glycol); batch of skin 4. Type of data set: in vitro ADME. How it is done: Frozen human dorsal cadaver skin (Caucasian; back skin) was obtained from the National Disease Research Interchange, Philadelphia, USA. Skin from three different donors was used;
Thawed skin samples were dermatomed to 0.7 mm with an Aesculap dermatome to obtain “split-thickness” skin.
Percutaneous penetration was studied in vitro by means of static Franz-type diffusion cells with phosphate buffered saline/fetal calf serum 2:1 as receptor fluid at 32° in triplicates for 48 hours. The compounds were applied as 1% solutions (300 μl each) in propylene glycol (solution a) or in propylene glycol/oleyl alcohol 9:1 (solution b). Samples of 100 μl were taken 5 to 7 times and replaced by fresh receptor fluid as described previously (Schmook, et al., Skin Pharmacol. 1993, 6:116-124).
Drug analysis was performed with specimens of the exposed skin (at the end of the 48 hours experiment), from which the stratum corneum had been removed by 20 strippings with an adhesive tape. The weighed skin samples were homogenized in 0.2 M ammonium phosphate buffer (pH 7.0). The homogenates were extracted with ethyl acetate and processed as described (Schmook, et al 1993).

Experiment in data set [2]: as above
The following applies: batch of skin 4. In kind it is in vitro ADME.

Where [3] appears, read: solution c (propylene glycol containing 0.1% DMSO).
Where [4] appears, read: solution d (propylene glycol containing 1% DMSO).

VEGF-R2 (KDR), sequence (P35968 20-1356, species assumed): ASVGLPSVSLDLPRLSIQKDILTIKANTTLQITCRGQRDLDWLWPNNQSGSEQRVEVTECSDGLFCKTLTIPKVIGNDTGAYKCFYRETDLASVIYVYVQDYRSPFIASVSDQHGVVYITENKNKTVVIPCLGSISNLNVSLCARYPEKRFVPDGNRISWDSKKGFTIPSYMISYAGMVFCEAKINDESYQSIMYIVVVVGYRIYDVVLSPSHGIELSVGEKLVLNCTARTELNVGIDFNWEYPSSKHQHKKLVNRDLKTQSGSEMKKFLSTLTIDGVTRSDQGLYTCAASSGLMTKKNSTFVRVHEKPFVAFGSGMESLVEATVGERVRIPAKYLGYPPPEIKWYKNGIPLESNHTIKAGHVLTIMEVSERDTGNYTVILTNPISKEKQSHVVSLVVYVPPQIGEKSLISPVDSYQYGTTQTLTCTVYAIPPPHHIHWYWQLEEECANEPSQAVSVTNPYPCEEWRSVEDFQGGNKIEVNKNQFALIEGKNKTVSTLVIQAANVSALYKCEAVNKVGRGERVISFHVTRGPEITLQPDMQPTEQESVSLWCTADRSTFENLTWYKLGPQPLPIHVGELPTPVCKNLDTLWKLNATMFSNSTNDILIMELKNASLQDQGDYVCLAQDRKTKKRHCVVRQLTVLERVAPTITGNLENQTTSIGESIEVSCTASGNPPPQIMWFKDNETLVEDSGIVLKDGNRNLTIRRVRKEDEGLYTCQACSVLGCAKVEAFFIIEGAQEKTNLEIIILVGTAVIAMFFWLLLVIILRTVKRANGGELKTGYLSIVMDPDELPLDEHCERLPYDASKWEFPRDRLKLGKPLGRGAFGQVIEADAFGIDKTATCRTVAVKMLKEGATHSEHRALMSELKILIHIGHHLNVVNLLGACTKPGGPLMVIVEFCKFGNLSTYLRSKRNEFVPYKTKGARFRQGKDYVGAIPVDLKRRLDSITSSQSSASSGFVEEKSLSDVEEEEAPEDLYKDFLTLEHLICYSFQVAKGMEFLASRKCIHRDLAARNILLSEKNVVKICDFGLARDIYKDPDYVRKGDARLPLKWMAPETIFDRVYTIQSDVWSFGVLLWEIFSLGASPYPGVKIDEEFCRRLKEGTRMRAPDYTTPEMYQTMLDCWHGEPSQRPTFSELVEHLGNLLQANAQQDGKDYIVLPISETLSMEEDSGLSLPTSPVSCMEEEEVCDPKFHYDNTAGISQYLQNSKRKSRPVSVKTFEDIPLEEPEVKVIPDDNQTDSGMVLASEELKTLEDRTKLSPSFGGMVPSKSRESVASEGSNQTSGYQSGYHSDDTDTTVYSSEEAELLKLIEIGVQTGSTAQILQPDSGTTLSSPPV

`Cc1ccc(NC(=O)c2cccc3cc(Oc4ccnc(N)n4)ccc23)cc1C(F)(F)F` [Example 15, 6-(2-Amino-pyrimidin-4-yloxy)-naphthalene-1-carboxylic acid (4-methyl-3-trifluoromethyl-phenyl)-amide]: 20 nM corresponded to half-maximal inhibition against VEGF-R2 (KDR) (IC50).
For the compound `Nc1nccc(Oc2ccc3c(c2)OCCN3C(=O)Nc2cccc(C(F)(F)F)c2)n1` [Example 10, 7-(2-Amino-pyrimidin-4-yloxy)-2,3-dihydro-benzo[1,4]oxazine-4-carboxylic acid (3-trifluoromethyl-phenyl)-amide], the melting point (commonly the temperature of the solid-liquid transition) was 161 to 163 °C. Also, the IC50 (as a rule, the concentration that gives 50% inhibition) against VEGF-R2 (KDR) was 37 nM.
Turning to `Nc1nccc(Oc2ccc3c(c2)OCCN3C(=O)Nc2ccc(C(F)(F)F)c(C(F)(F)F)c2)n1` [12a)], half-maximal inhibition against VEGF-R2 (KDR) (IC50) was put at 52 nM.
On to `Nc1nccc(Oc2ccc3c(C(=O)Nc4cccc(C(F)(F)F)c4)cccc3c2)n1` [formula Ip], for which the Permeation rate in data set [1], in data set [2] (setting [3]) and in data set [2] (setting [4]) was less than 2 ng/mL/h each time. The Skin concentration in data set [1] was 6.2 ± 1.5 µg/g; in data set [2] (setting [3]), 4.4 ± 3.1 µg/g; in data set [2] (setting [4]), 4.7 ± 2.9 µg/g.
For the compound `Cc1ccc(NC(=O)N2CCOc3cc(Oc4ccnc(N)n4)ccc32)cc1C(F)(F)F` [12f), 7-(2-amino-pyrimidin-4-yloxy)-2,3-dihydro-benzo[1,4]oxazine-4-carboxylic acid (4-methyl-3-trifluoromethyl-phenyl)-amide], the IC50 on VEGF-R2 (KDR) came to 17 nM.
For `CN1CCN(Cc2ccc(NC(=O)N3CCOc4cc(Oc5ccnc(N)n5)ccc43)cc2C(F)(F)F)CC1` [Example 22, 7-(2-Amino-pyrimidin-4-yloxy)-2,3-dihydro-benzo[1,4]oxazine-4-carboxylic acid [4-(4-methyl-piperazin-1-ylmethyl)-3-trifluoromethyl-phenyl]-amide], on VEGF-R2 (KDR), the IC50 was found to be 96 nM.
`CNc1cc(Oc2ccc3c(c2)OCCN3C(=O)Nc2cccc(C(F)(F)F)c2)ncn1` [Example 9, 7-(6-Methylamino-pyrimidin-4-yloxy)-2,3-dihydro-benzo[1,4]oxazine-4-carboxylic acid (3-trifluoromethyl-phenyl)-amide] yielded a melting point of 180 °C. The same compound yielded an IC50 against VEGF-R2 (KDR) of 29 nM.
For `Nc1nccc(Oc2ccc3c(c2)OCCN3C(=O)Nc2ccc(F)c(C(F)(F)F)c2)n1` [12d)], the IC50 against VEGF-R2 (KDR) worked out at 73 nM.
On to `CC(C)(C)c1ccc(NC(=O)c2cccc3cc(Oc4ccnc(N)n4)ccc23)cc1` [17b)], for which, on VEGF-R2 (KDR), the midpoint of inhibition, the IC50, lay at 54 nM.
`CNc1cc(Oc2ccc3c(c2)OCCN3C(=O)Nc2ccc(C)c(C(F)(F)F)c2)ncn1` [Example 8, 7-(6-Methylamino-pyrimidin-4-yloxy)-2,3-dihydro-benzo[1,4]oxazine-4-carboxylic acid (4-methyl-3-trifluoromethyl-phenyl)-amide] came in with a melting point of 180 to 182 °C. In addition, the IC50 against VEGF-R2 (KDR) worked out at 46 nM.
`COC(=O)Nc1nccc(Oc2ccc3c(c2)OCCN3C(=O)Nc2ccc(C)c(C(F)(F)F)c2)n1` [Example 21, 7-(2-Methoxycarbonylamino-pyrimidin-4-yloxy)-2,3-dihydro-benzo[1,4]oxazine-4-carboxylic acid (4-methyl-3-trifluoromethyl-phenyl)-amide]: inhibition against VEGF-R2 (KDR) was half-maximal at 19 nM (IC50).
At VEGF-R2 (KDR), `CC(=O)Nc1nccc(Oc2ccc3c(c2)OCCN3C(=O)Nc2ccc(C)c(C(F)(F)F)c2)n1` [Example 20, 7-(2-Acetylamino-pyrimidin-4-yloxy)-2,3-dihydro-benzo[1,4]oxazine-4-carboxylic acid (4-methyl-3-trifluoromethyl-phenyl)-amide] had an IC50 of 24 nM.
Regarding `CC(=O)Nc1nccc(Oc2ccc3c(C(=O)Nc4cccc(C(F)(F)F)c4)cccc3c2)n1` [Example 18, 6-(2-Acetylamino-pyrimidin-4-yloxy)-naphthalene-1-carboxylic acid (3-trifluoromethyl-phenyl)-amide], the melting point was 216 to 217 °C. Besides, on VEGF-R2 (KDR), the IC50 was found to be 21 nM.
As to `Nc1nccc(Oc2ccc3c(c2)OCCN3C(=O)Nc2ccc(Cl)c(C(F)(F)F)c2)n1` [12b)], 10 nM corresponded to half-maximal inhibition at VEGF-R2 (KDR) (IC50).
The same measure, in the same setting: the value for `Nc1nccc(Oc2ccc3c(C(=O)Nc4ccc(C(F)(F)F)cc4)cccc3c2)n1` [17a)] was 19 nM.

The values are drawn from patent US20120172386A1, “Combinations Comprising a VEGF Receptor Inhibitor” (NOVARTIS AG, priority 2005, published 2012).
